Reference: patent publication US7888386B2, “3-(phenoxyphenylmethyl)pyrrolidine compounds” (Theravance, Inc., priority 2008, dated 2011)
Read-outs that look alike come from different tables or passages of the source.

How the values were obtained:
hSERT = molecular target: T1, hSERT (Homo sapiens, UniProt P31645); assay: hSERT binding assay (Assay 1)
T1 construct: expressed in transfected cells; host or cells: HEK-293 derived cell line, stably transfected; membrane preparation
Description: (§1) Membrane radioligand binding assays were used to measure competitive inhibition of labeled ligand (^3H-citalopram or ^3H-nisoxetine or ^3H-WIN35428) binding to membranes prepared from cells expressing the respective human recombinant transporter (hSERT or hNET or hDAT) in order to determine the pKi values of test compounds at the transporters.
(§2) Recombinant human embryonic kidney (HEK-293) derived cell lines stably transfected with hSERT or hNET, respectively, were grown in DMEM medium supplemented with 10% dialyzed FBS (for hSERT) or FBS (for hNET), 100 μg/ml penicillin, 100 μg/ml streptomycin, 2 mM L-glutamine and 250 μg/ml of the aminoglycoside antibiotic G418, in a 5% CO2 humidified incubator at 37° C. When cultures reached 80% confluence, the cells were washed thoroughly in PBS (without Ca^2+ and Mg^2+) and lifted with 5 mM EDTA in PBS. Cells were pelleted by centrifugation, resuspended in lysis buffer (10 mM Tris-HCl, pH 7.5 containing 1 mM EDTA), homogenized, pelleted by centrifugation, then resuspended in 50 mM Tris-HCl, pH 7.5 and 10% sucrose at 4° C. Protein concentration of the membrane suspension was determined using a Bio-Rad Bradford Protein Assay kit. Membranes were snap frozen and stored at −80° C. Chinese hamster ovary membranes expressing hDAT (CHO-DAT) were purchased from PerkinElmer and stored at −80° C.
(§3) Stock solutions (10 mM in DMSO) of test compound were prepared and serial dilutions made using Dilution Buffer (50 mM Tris-HCl, 120 mM NaCl, 5 mM KCl, pH 7.4, 0.1% BSA, 400 μM ascorbic acid).
(§4) Following a 60 minute incubation at 22° C. (or a period sufficient to reach equilibrium), the membranes were harvested by rapid filtration over a 96-well UniFilter GF/B plate, pretreated with 0.3% polyethyleneimine, and washed 6 times with 300 μl wash buffer (50 mM Tris-HCl, 0.9% NaCl, pH 7.5 at 4° C.). Plates were dried overnight at room temperature, ˜45 μl of MicroScint™-20 (Perkin Elmer) added and bound radioactivity quantitated via liquid scintillation spectroscopy. Competitive inhibition curves and saturation isotherms were analyzed using GraphPad Prism Software package (GraphPad Software, Inc., San Diego, Calif.). IC50 values were generated from concentration response curves using the Sigmoidal Dose Response (variable slope) algorithm in Prism GraphPad.

hNET = molecular target: T2, hNET (Homo sapiens, UniProt P23975); assay: hNET binding assay (Assay 1); settings: read-out: NET pKi (converted)
T2 construct: expressed in transfected cells; host or cells: HEK-293 derived cell line, stably transfected; membrane preparation
Description: as §1, §2, §3, §4

[1] = ratio of binding Ki at hSERT to Ki at hNET, rounded off to the nearest tenth
[2] = membranes of HEK-293 cells expressing hNET, 1.0 nM 3H-nisoxetine
[3] = ratio of SERT Ki to NET Ki from binding assays
[4] = ratio of SERT Ki to NET Ki (binding)

T2 sequence (P23975 whole entry): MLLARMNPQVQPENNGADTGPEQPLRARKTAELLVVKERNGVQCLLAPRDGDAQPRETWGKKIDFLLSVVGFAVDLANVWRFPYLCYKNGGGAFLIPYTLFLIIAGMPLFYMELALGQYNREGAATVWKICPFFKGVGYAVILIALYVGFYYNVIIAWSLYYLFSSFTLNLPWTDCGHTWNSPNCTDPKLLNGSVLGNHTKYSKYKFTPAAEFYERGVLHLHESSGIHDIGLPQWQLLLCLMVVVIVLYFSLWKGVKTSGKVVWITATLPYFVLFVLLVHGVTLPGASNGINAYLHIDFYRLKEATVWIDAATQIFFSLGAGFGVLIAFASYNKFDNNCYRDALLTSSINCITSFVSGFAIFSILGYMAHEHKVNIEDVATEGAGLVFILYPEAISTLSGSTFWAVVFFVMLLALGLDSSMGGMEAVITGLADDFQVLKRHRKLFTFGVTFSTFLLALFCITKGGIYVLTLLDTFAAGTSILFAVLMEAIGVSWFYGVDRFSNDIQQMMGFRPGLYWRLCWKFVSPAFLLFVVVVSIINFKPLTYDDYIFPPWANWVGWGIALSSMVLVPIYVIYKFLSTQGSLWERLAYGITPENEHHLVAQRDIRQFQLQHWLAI
T1 sequence (P31645 whole entry): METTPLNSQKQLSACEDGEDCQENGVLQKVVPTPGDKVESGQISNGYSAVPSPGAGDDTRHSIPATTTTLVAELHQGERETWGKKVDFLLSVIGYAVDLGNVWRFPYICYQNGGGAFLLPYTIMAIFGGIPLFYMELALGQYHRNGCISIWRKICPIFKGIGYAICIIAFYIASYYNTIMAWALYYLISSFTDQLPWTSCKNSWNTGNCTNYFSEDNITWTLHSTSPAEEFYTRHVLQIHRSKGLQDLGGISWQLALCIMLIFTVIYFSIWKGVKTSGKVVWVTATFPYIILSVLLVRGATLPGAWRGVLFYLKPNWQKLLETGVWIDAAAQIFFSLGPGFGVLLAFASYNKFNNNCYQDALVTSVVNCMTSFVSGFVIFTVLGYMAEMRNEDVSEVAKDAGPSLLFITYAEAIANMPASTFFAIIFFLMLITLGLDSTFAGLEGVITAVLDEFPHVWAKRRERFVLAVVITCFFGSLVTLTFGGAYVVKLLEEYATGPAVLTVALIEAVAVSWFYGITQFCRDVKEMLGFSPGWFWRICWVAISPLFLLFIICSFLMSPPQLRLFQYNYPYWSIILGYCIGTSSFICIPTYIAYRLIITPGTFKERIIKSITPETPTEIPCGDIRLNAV

| Compound | SERT Ki/NET Ki (hSERT; [3]) | Ki (hNET; hNET binding assay) [nM] | further results |
| --- | --- | --- | --- |
| COc1ccccc1O[C@H](c1cccc(Cl)c1)[C@@H]1CCNC1 (racemic) [Compound 20-20] | – | – | SERT Ki/NET Ki (hSERT; [1]): 13; Ki (hNET; [2]): 2.51 nM |
| COc1ccccc1O[C@@H](c1cc(F)cc(F)c1)[C@@H]1CCNC1 (racemic) [Compound 20-31] | – | – | SERT Ki/NET Ki (hSERT; [1]): 6.3; Ki (hNET; [2]): 5.01 nM |
| COc1ccccc1OC(c1cc(F)cc(F)c1)C1CCNC1 (racemic) [Compound 20-32] | – | – | SERT Ki/NET Ki (hSERT; [1]): 10; Ki (hNET; [2]): 0.794 nM |
| COc1ccccc1O[C@@H](c1cc(C)cc(F)c1)[C@H]1CCNC1 (racemic) [Compound 20-36] | – | – | SERT Ki/NET Ki (hSERT; [1]): 7.9; Ki (hNET; [2]): 1.26 nM |
| COc1ccccc1O[C@@H](c1cc(C)cc(F)c1)[C@@H]1CCNC1 (racemic) [Compound 20-37] | – | – | SERT Ki/NET Ki (hSERT; [1]): 13; Ki (hNET; [2]): 6.31 nM |
| Fc1ccc(Oc2cccc(O[C@H](c3ccccc3)[C@@H]3CCNC3)c2)cc1 (racemic) [Compound 21-15] | – | – | SERT Ki/NET Ki (hSERT; [1]): 1; Ki (hNET; [2]): 2 nM |
| Cc1c(F)cccc1OC(c1ccccc1)C1CCNC1 (racemic) [Compound 25-17] | – | – | SERT Ki/NET Ki (hSERT; [1]): 0.2; Ki (hNET; [2]): 2.51 nM |
| CC(=O)c1ccccc1O[C@H](c1ccccc1)[C@@H]1CCNC1 (stereo in doubt) [Ex. 9-3, 1-[2-((R)-phenyl-(S)-pyrrolidin-3-yl-methoxy)phenyl]ethanone] | – | – | SERT Ki/NET Ki (hSERT; [1]): 50; Ki (hNET; [2]): 3.16 nM |
| Cc1ccc(OC(c2ccccc2)C2CCNC2)c(Cl)c1 (stereo not drawn) [27-10] | 0.8 | 0.631 | – |
| Cc1cc(F)ccc1OC(c1ccccc1)C1CCNC1 (stereo not drawn) [27-13] | 0.3 | 3.16 | – |
| Cc1cc(F)ccc1O[C@@H](c1ccccc1)[C@H]1CCNC1 [27-14] | 0.3 | 2 | – |
| CCc1cc(F)ccc1OC(c1ccccc1)C1CCNC1 (stereo not drawn) [27-23] | 0.8 | 1 | – |
| COc1cc(F)ccc1OC(c1ccccc1)C1CCNC1 (stereo not drawn) [27-25] | 4.6 | 0.794 | – |
| COC(=O)c1cc(Cl)ccc1OC(c1ccccc1)C1CCNC1 (stereo not drawn) [27-34] | 4 | 2.51 | – |
| CCOC(=O)c1cc(Cl)ccc1O[C@@H](c1ccccc1)[C@H]1CCNC1 [27-36] | 0.6 | 3.98 | – |
| N#Cc1cccc([C@H](Oc2ccc(Cl)cc2F)[C@H]2CCNC2)c1 [28-3] | 0.5 | 6.31 | – |
| Fc1cc(F)cc(C(Oc2ccc(Cl)cc2F)C2CCNC2)c1 (stereo not drawn) [28-9] | 0.3 | 3.16 | – |
| Fc1cc(Cl)cc(C(Oc2ccc(Cl)cc2F)C2CCNC2)c1 (stereo not drawn) [28-11] | 0.8 | 2.51 | – |
| Cc1cc(F)cc(C(Oc2ccc(Cl)cc2F)C2CCNC2)c1 (stereo not drawn) [28-13] | 0.5 | 5.01 | – |
| CCc1cc(F)ccc1OC(c1cc(F)cc(F)c1)C1CCNC1 (stereo not drawn) [28-14] | 3.2 | 1.58 | – |
| COc1cc(F)ccc1OC(c1cc(F)cc(F)c1)C1CCNC1 (stereo not drawn) [28-17] | 25 | 0.398 | – |

| Compound | SERT Ki/NET Ki (hSERT; [3]) | Ki (hNET; hNET binding assay) [nM] | further results |
| --- | --- | --- | --- |
| COc1cc(Cl)ccc1O[C@@H](c1cc(F)cc(F)c1)[C@H]1CCNC1 [28-19] | 0.8 | 1 | – |
| Fc1ccc(F)c(O[C@@H](c2ccccc2)[C@H]2CCNC2)c1 [29-2] | 32 | 1.26 | – |
| Fc1ccc(F)c(O[C@H](c2ccccc2)[C@@H]2CCNC2)c1 [29-3] | 0.5 | 7.94 | – |
| Fc1ccc(Cl)cc1OC(c1ccccc1)C1CCNC1 (stereo not drawn) [29-4] | 1.6 | 1.26 | – |
| Fc1ccc(Cl)cc1O[C@@H](c1ccccc1)[C@H]1CCNC1 [29-5] | 16 | 0.501 | – |
| Fc1ccc(Cl)cc1O[C@H](c1ccccc1)[C@@H]1CCNC1 [29-6] | 0.3 | 3.98 | – |
| Fc1ccc(Br)cc1OC(c1ccccc1)C1CCNC1 (stereo not drawn) [29-7] | 1.6 | 0.794 | – |
| Cc1ccc(F)c(OC(c2ccccc2)C2CCNC2)c1 (stereo not drawn) [29-8] | 3.2 | 1.58 | – |
| Cc1ccc(F)c(O[C@@H](c2ccccc2)[C@H]2CCNC2)c1 [29-9] | 10 | 1.26 | – |
| Clc1ccc(Cl)c(OC(c2ccccc2)C2CCNC2)c1 (stereo not drawn) [29-11] | 0.2 | 3.98 | – |
| Fc1ccc(Cl)c(OC(c2ccccc2)C2CCNC2)c1 (stereo not drawn) [29-12] | 2 | 1.58 | – |
| Cc1ccc(F)cc1OC(c1ccccc1)C1CCNC1 (stereo not drawn) [29-15] | 1.3 | 3.98 | – |
| Cc1ccc(F)cc1OC(c1ccccc1)C1CCNC1 (stereo not drawn) [29-16] | 7.9 | 1.58 | – |
| COc1ccc(Cl)cc1OC(c1ccccc1)C1CCNC1 (stereo not drawn) [29-21] | 1 | 3.16 | – |
| COc1ccc(Cl)cc1OC(c1ccccc1)C1CCNC1 (stereo not drawn) [29-22] | 2.5 | 2.51 | – |
| COc1ccc(F)cc1O[C@@H](c1ccccc1)[C@H]1CCNC1 [29-24] | 34 | 1 | – |
| COc1ccc(F)cc1O[C@H](c1ccccc1)[C@@H]1CCNC1 [29-25] | 0.3 | 7.94 | – |
| Fc1cc(F)cc(C(Oc2cc(Cl)ccc2F)C2CCNC2)c1 (stereo not drawn) [30-1] | 3.2 | 1.26 | – |
| Fc1cc(F)cc(C(Oc2cc(Cl)ccc2F)C2CCNC2)c1 (stereo not drawn) [30-2] | 25 | 0.794 | – |
| Fc1cc(F)cc(C(Oc2cc(Cl)ccc2Cl)C2CCNC2)c1 (stereo not drawn) [30-3] | 0.3 | 3.98 | – |
| Fc1cc(F)cc([C@H](Oc2cc(Cl)ccc2Cl)[C@H]2CCNC2)c1 [30-4] | 2.5 | 3.16 | – |

| Compound | SERT Ki/NET Ki (hSERT; [3]) | Ki (hNET; hNET binding assay) [nM] | further results |
| --- | --- | --- | --- |
| COc1ccc(F)cc1O[C@@H](c1cc(F)cc(F)c1)[C@H]1CCNC1 [30-5] | 79 | 0.501 | – |
| COc1ccc(F)cc1OC(c1cc(F)cc(F)c1)C1CCNC1 (stereo not drawn) [30-6] | 0.4 | 5.01 | – |
| COc1ccc(Cl)cc1OC(c1cccc(Cl)c1)C1CCNC1 (stereo not drawn) [30-9] | 0.6 | 7.94 | – |
| Fc1cccc(Cl)c1O[C@@H](c1ccccc1)[C@H]1CCNC1 [31-4] | 40 | 0.126 | – |
| Fc1cccc(Cl)c1O[C@H](c1ccccc1)[C@@H]1CCNC1 [31-5] | 1.3 | 0.631 | – |
| Cc1cccc(F)c1OC(c1ccccc1)C1CCNC1 (stereo not drawn) [31-6] | 2 | 1.58 | – |
| Cc1cccc(F)c1O[C@@H](c1ccccc1)[C@H]1CCNC1 [31-7] | 5 | 0.2 | – |
| Cc1cccc(Cl)c1OC(c1ccccc1)C1CCNC1 (stereo not drawn) [31-11] | 1.3 | 2 | – |
| Cc1cccc(Cl)c1O[C@@H](c1ccccc1)[C@H]1CCNC1 [31-12] | 1.6 | 1 | – |
| COc1cccc(F)c1OC(c1ccccc1)C1CCNC1 (stereo not drawn) [31-15] | 2 | 2 | – |
| COc1cccc(F)c1O[C@@H](c1ccccc1)[C@H]1CCNC1 [31-16] | 79 | 0.2 | – |
| COC(=O)c1cccc(Cl)c1O[C@@H](c1ccccc1)[C@H]1CCNC1 [31-17] | 25 | 3.16 | – |
| Cc1ccc(OC(c2ccccc2)C2CCNC2)cc1F (stereo not drawn) [33-2] | 0.1 | 5.01 | – |
| Fc1cc(Cl)cc(OC(c2ccccc2)C2CCNC2)c1 (stereo not drawn) [34-5] | 0.1 | 3.16 | – |
| Clc1cc(Br)cc(OC(c2ccccc2)C2CCNC2)c1 (stereo not drawn) [34-11] | 0.1 | 2.51 | – |
| Clc1cc(Cl)cc(OC(c2ccccc2Cl)C2CCNC2)c1 (stereo not drawn) [35-3] | – | – | SERT Ki/NET Ki (hSERT; [4]): 0.1; Ki (hNET; hNET binding): 3.16 nM |
| Fc1ccc(C(Oc2cc(Cl)cc(Cl)c2)C2CCNC2)cc1 (stereo not drawn) [35-9] | – | – | SERT Ki/NET Ki (hSERT; [4]): 0.1; Ki (hNET; hNET binding): 7.94 nM |
| Cc1ccc(C(Oc2cc(Cl)cc(Cl)c2)C2CCNC2)cc1 (stereo not drawn) [35-12] | – | – | SERT Ki/NET Ki (hSERT; [4]): 0.1; Ki (hNET; hNET binding): 7.94 nM |
| Fc1cc(F)cc(C(Oc2cc(Cl)cc(Cl)c2)C2CCNC2)c1 (stereo not drawn) [35-14] | – | – | SERT Ki/NET Ki (hSERT; [4]): 0.3; Ki (hNET; hNET binding): 2 nM |
| Fc1cc(F)cc([C@@H](Oc2cc(Cl)cc(Cl)c2)[C@@H]2CCNC2)c1 [35-17] | – | – | SERT Ki/NET Ki (hSERT; [4]): 0.2; Ki (hNET; hNET binding): 1.58 nM |
| Fc1cc(Cl)cc(C(Oc2cc(Cl)cc(Cl)c2)C2CCNC2)c1 (stereo not drawn) [35-18] | – | – | SERT Ki/NET Ki (hSERT; [4]): 0.5; Ki (hNET; hNET binding): 5.01 nM |
